This passage reports mutagenic call results from PubChem BioAssay AID1259407 (Chemical Carcinogenesis Research Information System (CCRIS), 2018).

Calls of active or inactive are those of the source. The rule behind the calls is not given here.

The series concerns CCRIS mutagenicity, Ames/micronucleus/aberration tests. The series is described as follows: CCRIS mutagenicity studies. The following applies: Test System: AMES SALMONELLA TYPHIMURIUM

Regarding `C[n+]1c2ccccc2c(N)c2ccccc21`, the mutagenic call was “active; positive” (Strain/Indicator: TA1535, Metabolic Activation: NONE, Method: PREINCUBATION); “active; positive” (Strain/Indicator: TA1535, Metabolic Activation: RAT, LIVER, S-9, TETRACHLOROBIPHENYL, Method: PREINCUBATION); “active; positive” (Strain/Indicator: TA1537, Metabolic Activation: NONE, Method: PREINCUBATION); “active; positive” (Strain/Indicator: TA1537, Metabolic Activation: RAT, LIVER, S-9, TETRACHLOROBIPHENYL, Method: PREINCUBATION); “inactive; negative” (Strain/Indicator: TA1538, Metabolic Activation: NONE, Method: PREINCUBATION); “inactive; negative” (Strain/Indicator: TA1538, Metabolic Activation: RAT, LIVER, S-9, TETRACHLOROBIPHENYL, Method: PREINCUBATION). The mutagenic call (Strain/Indicator: TA1977, Metabolic Activation: NONE, Method: PREINCUBATION) is “active; positive” and the mutagenic call (Strain/Indicator: TA1977, Metabolic Activation: RAT, LIVER, S-9, TETRACHLOROBIPHENYL, Method: PREINCUBATION) is “active; positive”.
Regarding `Nc1ccc2c(c1)-c1cccc3cccc-2c13`, the mutagenic call (Strain/Indicator: TA98, Metabolic Activation: RAT, LIVER, S-9, AROCLOR 1254 (2 OR 4%), Method: STANDARD PLATE) was “active; positive”; the mutagenic call (Strain/Indicator: TA100, Metabolic Activation: RAT, LIVER, S-9, AROCLOR 1254 (2%), Method: STANDARD PLATE) is “active; positive”; the mutagenic call (Strain/Indicator: TA1535, Metabolic Activation: RAT, LIVER, S-9, AROCLOR 1254 (2%), Method: STANDARD PLATE) is “inactive; negative”; the mutagenic call (Strain/Indicator: TA1537, Metabolic Activation: RAT, LIVER, S-9, AROCLOR 1254 (2%), Method: STANDARD PLATE) was “active; positive”.
Consider `OC(Nc1snc2ccccc12)C(Cl)(Cl)Cl` (stereo not given), for which the mutagenic call runs as follows: (Strain/Indicator: TA98, Metabolic Activation: NONE, Method: STANDARD PLATE) “inactive; negative”; (Strain/Indicator: TA98, Metabolic Activation: S-9, Method: STANDARD PLATE) “inactive; negative”; (Strain/Indicator: TA100, Metabolic Activation: NONE, Method: STANDARD PLATE) “inactive; negative”; (Strain/Indicator: TA100, Metabolic Activation: S-9, Method: STANDARD PLATE) “inactive; negative”; (Strain/Indicator: TA1535, Metabolic Activation: NONE, Method: STANDARD PLATE) “inactive; negative”; (Strain/Indicator: TA1535, Metabolic Activation: S-9, Method: STANDARD PLATE) “inactive; negative”. The mutagenic call is “inactive; negative” (Strain/Indicator: TA1537, Metabolic Activation: NONE, Method: STANDARD PLATE) and “inactive; negative” (Strain/Indicator: TA1537, Metabolic Activation: S-9, Method: STANDARD PLATE).
